Publication PMC11532403 (Signal Transduction and Targeted Therapy, 2024)
Like-named read-outs stand apart in the source and are kept apart here.

Assay: Phase 1 trial: plasma pharmacokinetics
Type: in vivo
Conditions: human; for AUC(0-t): read-out: AUC0–12 h mean; for AUC(0-inf): read-out: AUCINF_obs mean; for Cmax: read-out: Cmax mean; for MRT inf: read-out: MRTINF_obs mean; for half-life: read-out: T1/2 mean (converted); for Tmax: read-out: Tmax mean
From the text: Serial plasma samples were also collected in each patient after the first dose and during multiple-dose administration on Cycle 1 Day 28.

[1] = 20 mg, Cycle 1 Day 1, 20 mg BID (n = 1)
[2] = 20 mg, Cycle 1 Day 1, 20 mg QD (n = 1)
[3] = 40 mg, Cycle 1 Day 1, 40 mg BID (n = 3)
[4] = 80 mg, Cycle 1 Day 1, 80 mg BID (n = 3)
[5] = 120 mg, Cycle 1 Day 1, 120 mg BID (n = 3)
[6] = 160 mg, Cycle 1 Day 1, 160 mg BID (n = 23)
[7] = 160 mg, Cycle 1 Day 28, 160 mg BID (n = 15)
[8] = 200 mg, Cycle 1 Day 28, 200 mg BID (n = 5)
[9] = oral, 20 mg, Cycle 1 Day 28, 20 mg BID (n = 1)
[10] = oral, 20 mg, Cycle 1 Day 28, 20 mg QD (n = 1)

Structure (SMILES): COc1ccc(CN2C3CC2CN(c2ccc(-c4cc(N5CC(C)(O)C5)cn5ncc(C#N)c45)cn2)C3)cn1 [SY-5007, 6-(3-hydroxy-3-methylazetidin-1-yl)-4-(6-(6-((6-methoxypyridin-3-yl)methyl)-3,6-diazabicyclo[3.1.1]heptan-3-yl)pyridin-3-yl)pyrazolo[1,5-a]pyridine-3-carbonitrile]
- AUC(0-t) [1]: 1580 ng·h/mL
- AUC(0-inf) [1]: 3830 ng·h/mL
- Cmax [1]: 214 ng/mL
- MRT inf [1]: 16.7 h
- half-life [1]: 12.1 h
- Tmax [1]: 4 h
- AUC(0-t) [2]: 2230 ng·h/mL
- AUC(0-inf) [2]: 2410 ng·h/mL
- Cmax [2]: 391 ng/mL
- MRT inf [2]: 7.7 h
- half-life [2]: 6.8 h
- Tmax [2]: 1 h
- AUC(0-t) [3]: 2720 ng·h/mL
- AUC(0-inf) [3]: 3760 ng·h/mL
- Cmax [3]: 714 ng/mL
- MRT inf [3]: 8.9 h
- half-life [3]: 8.7 h
- Tmax [3]: 0.5 h
- AUC(0-t) [4]: 5150 ng·h/mL
- AUC(0-inf) [4]: 7220 ng·h/mL
- Cmax [4]: 1450 ng/mL
- MRT inf [4]: 12.4 h
- half-life [4]: 37.8 h
- Tmax [4]: 0.5 h
- AUC(0-t) [5]: 9270 ng·h/mL
- AUC(0-inf) [5]: 14100 ng·h/mL
- Cmax [5]: 2470 ng/mL
- MRT inf [5]: 11.6 h
- half-life [5]: 44.4 h
- Tmax [5]: 0.5 h
- AUC(0-t) [6]: 16700 ng·h/mL
- AUC(0-inf) [6]: 21300 ng·h/mL
- Cmax [6]: 3470 ng/mL
- MRT inf [6]: 8.2 h
- half-life [6]: 10.8 h
- Tmax [6]: 1 h
- AUC(0-t) [7]: 36800 ng·h/mL
- AUC(0-inf) [7]: 67200 ng·h/mL
- Cmax [7]: 4730 ng/mL
- MRT inf [7]: 13.9 h
- half-life [7]: 9 h
- Tmax [7]: 2 h
- AUC(0-t) [8]: 41100 ng·h/mL
- AUC(0-inf) [8]: 63700 ng·h/mL
- Cmax [8]: 5520 ng/mL
- MRT inf [8]: 10.8 h
- half-life [8]: 7 h
- Tmax [8]: 2 h
- AUC(0-t) [9]: 2940 ng·h/mL
- AUC(0-inf) [9]: 4020 ng·h/mL
- Cmax [9]: 640 ng/mL
- MRT inf [9]: 9 h
- half-life [9]: 7.3 h
- Tmax [9]: 0.5 h
- AUC(0-t) [10]: 2200 ng·h/mL
- AUC(0-inf) [10]: 2340 ng·h/mL
